Data set [1] in a line: Toxicity in NMRI nu/nu mouse assessed as maximum tolerated dose. The class given is organism-based. As to conditions: in vivo.
Data set [2] can be described thus: Binding affinity to yeast HSP90. Further details: species or system Saccharomyces cerevisiae.
Data set [3] can be described thus: Solubility at room temperature after 6 hrs by HPLC. It counts as physicochemical.
Data set [4] can be described thus: Antitumor activity against human MAXF401 cells xenografted in nude mouse assessed as inhibition of tumor growth at 42.5 mg/kg/day, ip administered alternately for 5 days with 3 days intervals assessed on day 21. It counts as functional. As to conditions: route intraperitoneal.
The nature of data set [5]: Antitumor activity against human MAXF401 cells xenografted in nude mouse assessed as inhibition of tumor growth at 50 mg/kg/day, ip administered alternately for 5 days with 3 days intervals assessed on day 28. The class given is functional. As to conditions: route intraperitoneal. (Xenograft models place foreign cells or tissue in a host animal.)
Data set [6] can be described thus: Antitumor activity against human MAXF401 cells xenografted in nude mouse assessed as inhibition of tumor growth at 85 mg/kg/day, ip administered alternately for 5 days with 3 days intervals assessed on day 35. The class given is functional. As to conditions: route intraperitoneal.
Data set [7] has as its system Mus musculus. Briefly: Toxicity in NMRI nu/nu mouse assessed as body weight loss at 250 mg/kg/day for 5 days. The class given is organism-based. As to conditions: in vivo, 120 h.
In data set [8] the test system is Mus musculus. Briefly: Toxicity in nude mouse xenografted with human MAXF401 cells assessed as median body weight loss at 85 mg/kg/day, ip. Further details: route intraperitoneal. As to conditions: in vivo. The class given is organism-based.
Data set [9] relates to Mus musculus. The experiment in a line: Toxicity in nude mouse xenografted with human MAXF401 cells assessed as median body weight loss on day 21 at 50 mg/kg/day, ip. The class given is organism-based. As to conditions: in vivo. Further details: route intraperitoneal.

The results in this text go back to ChEMBL document CHEMBL1140126, “Optimizing natural products by biosynthetic engineering: discovery of nonquinone Hsp90 inhibitors” (J Med Chem, 2008).

SMILES strings stand for the structures. ≈ marks a conversion by molar mass, not a printed value.

For orientation: MTD means the highest dose tested that stayed within the study's limit of toxicity. Turning to `C=CCNC1=C2C[C@@H](C)C[C@H](OC)[C@H](O)[C@@H](C)/C=C(\C)[C@H](OC(N)=O)[C@@H](OC)/C=C\C=C(/C)C(=O)NC(=CC1=O)C2=O` [TANESPIMYCIN], the MTD in data set [1] turned out to be 50 mg/kg.

By Kd is commonly meant the constant that tells how readily two partners part at equilibrium. Read a low Kd as tighter binding. Turning to `CO[C@H]1C[C@H](C)[C@@H](O)c2cc(O)cc(c2)NC(=O)/C(C)=C/CC[C@H](C)[C@@H](OC(N)=O)/C(C)=C/[C@H](C)[C@H]1O`, the affinity in [2], expressed as Kd, was 6 nM.

What is called solubility is how much of the substance goes into solution per volume. Higher therefore signals a readily soluble substance. By T/C is commonly meant the ratio of treated to control. `CO[C@H]1C[C@H](C)Cc2cc(O)cc(c2)NC(=O)/C(C)=C/CC[C@H](C)[C@@H](OC(N)=O)/C(C)=C/[C@H](C)[C@H]1O`: the solubility at 6 h in data set [3] is > 200 µM. For the same compound, the values for the T/C in [4], in data set [5] and in data set [6] were 53.9%, 35.6% and 45.3%, respectively. Besides, the MTD in data set [1] is ≥ 250 mg/kg. Besides, the Activity with Mus musculus [7] is recorded as 3.8%; with Mus musculus [8] it was 3.2%; in the data set with Mus musculus [9], 4.4%.

The compound `CO[C@H]1[C@@H](OC)C[C@H](C)[C@@H](OC)C2=CC(=O)C=C(NC(=O)/C(C)=C/C=C\[C@H](C)[C@@H](OC(N)=O)/C(C)=C/[C@@H]1C)C2=O` [MACBECIN] returned a solubility at 6 h in data set [3] of 81 µM (≈ 45.3 µg/mL).
